Earlier results, collected in patent US20060275372A1 (Elan Pharma International Limited, priority 2005, published 2006).
Where a name gives a salt, the structure may show the parent alone.

Conditions: fasting state as compared to the fed state

Compound: Cc1ccc(NC(=O)c2ccc(CN3CCN(C)CC3)cc2)cc1Nc1nccc(-c2cccnc2)n1 [Imatinib mesylate, 4-[(4-Methyl-1-piperazinyl)methyl]-N-[4-methyl-3-[[4-(3-pyridinyl)-2-pyrimidinyl]amino]-phenyl]benzamide methanesulfonate]
- bioavailability: limited bioavailability
